Read-outs that look alike come from different tables or passages of the source.

This is an account of results in article PMC9304199, “A small molecule CFTR potentiator restores ATP‐dependent channel gating to the cystic fibrosis mutant G551D‐CFTR” (British Journal of Pharmacology, 2022).

The target in assay [1] is T1, F508del‐CFTR (Homo sapiens, UniProt P13569, DEL508-508). The assay can be described thus: Thermal stability (deactivation) of F508del‐CFTR in excised inside-out membrane patches at 37°C. Format: biochemical. Also on record: expressed in transfected cells; BHK cells from MD Amaral. On the procedure:
To investigate the effects of CFTR potentiators on the plasma membrane stability of F508del‐CFTR, we monitored its thermal stability in excised inside‐out membrane patches at 37°C (Wang et al., [2014]). Membrane patches were excised and F508del‐CFTR Cl^− channels activated at 27°C. Once channels were fully activated and potentiated, the temperature of the intracellular solution was increased to 37°C, which took 2–3 min. To quantify data, we calculated open probability (Po) and normalised Po values in 30‐s intervals over a 9‐min period (Wang et al., [2014]).

Assay [2] concerns the target T1, F508del‐CFTR. The assay can be described thus: Single-channel recording in excised inside-out membrane patches, F508del‐CFTR. In kind it is biochemical. Also noted: expressed in transfected cells; BHK cells from MD Amaral. Particulars: for reduction of interburst interval (IBI): single active channel; for Emax: read-out: Maximal effect (%) (95% CI). On the procedure: For CFTR studies using automated electrophysiology and single-channel recording, we used baby hamster kidney (BHK) cells (RRID:CVCL_1915) and human embryonic kidney (HEK) 293 cells (RRID:CVCL_0045) stably expressing wild-type human CFTR and the CFTR variants F508del- and […] et al., [2002]; Xu et al., [2014]). […] HEK cells expressing CFTR variants were generated using the Flp-InTM system as described above for F508del- and G551D-CFTR-expressing FRT cells. They were cultured in Dulbecco's modified Eagle's medium (glucose, 1.5 g·L^-1; sodium pyruvate, 110 mg·L^-1) supplemented with 10% FBS (PAA Laboratories), GlutaMAXTM and hygromycin-B (150 μg·ml^-1; InvitrogenTM, Thermo Fisher Scientific) at 37°C in a humidified atmosphere with 5% CO2. Prior to study, F508del-CFTR expressed in HEK cells was trafficked to the plasma membrane by low temperature incubation (27°C for 24-72 h). […] CFTR Cl^- channels were recorded in excised inside-out membrane patches using an Axopatch 200B patch-clamp amplifier and pCLAMP software (version 10.3) (RRID:SCR_011323) (both from Molecular Devices, San Jose, CA, USA) (Sheppard & Robinson, [1997]). […] Within 2 min after membrane patch excision, we added the catalytic subunit of protein kinase A (PKA; 75 nM) and ATP (1 mM) to the intracellular solution to activate CFTR Cl^- channels. To minimise channel rundown, we added PKA and millimolar concentrations of ATP to all intracellular solutions and clamped voltage at -50 mV. […] We reduced the ATP concentration when testing CFTR potentiators on wild-type CFTR to observe their effects more clearly. […] Instead, specific interventions with CFTR potentiators were compared with the pre-intervention control period made with the same concentration of ATP and PKA, but without test compounds. […] To determine channel number, we used the maximum number of simultaneous channel openings observed during an experiment (Cai et al., [2006]). To minimise errors, we used experimental conditions that robustly potentiate channel activity and verified that recordings were of sufficient length to ascertain the correct number of channels ([…] et al., [1994]). […] Therefore, Po values for G551D-CFTR are expressed as apparent Po (Po(app)) values. Single-channel currents were directly acquired to a computer hard disc after filtering at a corner frequency (f c) of 500 Hz with an eight-pole Bessel filter (model LHBF-48×; npi electronic GmbH, Tamm, Germany) and digitising at a sampling rate of 5 kHz using a Digidata 1440A interface (Molecular Devices) and pCLAMP software. To measure single-channel current amplitude (i), Gaussian distributions were fit to current amplitude histograms. For Po and burst analyses, lists of open- and closed-times were created using a half-amplitude crossing criterion for event detection and dwell-time histograms constructed as previously described (Sheppard & Robinson, [1997]); transitions < 1 ms were excluded from the analysis (eight-pole Bessel filter rise time [T 10-90] ~ 0.73 ms at f c = 500 Hz). Histograms were fitted with one or more component exponential functions using the maximum likelihood method. […] The mean interburst interval (TIBI) was calculated using the equation (Cai et al., [2006]): (1) Po=Tb/TMBD+TIBI, where T b = (mean burst duration) × (open probability within a burst). Mean burst duration (T MBD) and open probability within a burst (Po[burst]) were determined directly from experimental data using pCLAMP software.

Where [3] appears, read: F508del‐CFTR Cl− channels, excised inside-out patches, 23°C, data normalised to ivacaftor 1 μM, read-out: EC50 (μM) (95% CI).
[4] abbreviates: low temperature-rescued F508del‐CFTR, ATP 1 mM, PKA 75 nM, ~23°C.
Setting [5] is: low temperature-rescued F508del‐CFTR, ATP 1 mM, PKA 75 nM, ~23°C, read-out: EC50 for potentiation of Po.
Setting [6] is: low temperature-rescued F508del‐CFTR, compound 10 μM, ATP 1 mM.
Setting [7] is: low temperature-rescued F508del‐CFTR, compound 1 μM, ATP 1 mM.

T1 sequence (P13569 with tags, fused parts or gaps DEL508-508): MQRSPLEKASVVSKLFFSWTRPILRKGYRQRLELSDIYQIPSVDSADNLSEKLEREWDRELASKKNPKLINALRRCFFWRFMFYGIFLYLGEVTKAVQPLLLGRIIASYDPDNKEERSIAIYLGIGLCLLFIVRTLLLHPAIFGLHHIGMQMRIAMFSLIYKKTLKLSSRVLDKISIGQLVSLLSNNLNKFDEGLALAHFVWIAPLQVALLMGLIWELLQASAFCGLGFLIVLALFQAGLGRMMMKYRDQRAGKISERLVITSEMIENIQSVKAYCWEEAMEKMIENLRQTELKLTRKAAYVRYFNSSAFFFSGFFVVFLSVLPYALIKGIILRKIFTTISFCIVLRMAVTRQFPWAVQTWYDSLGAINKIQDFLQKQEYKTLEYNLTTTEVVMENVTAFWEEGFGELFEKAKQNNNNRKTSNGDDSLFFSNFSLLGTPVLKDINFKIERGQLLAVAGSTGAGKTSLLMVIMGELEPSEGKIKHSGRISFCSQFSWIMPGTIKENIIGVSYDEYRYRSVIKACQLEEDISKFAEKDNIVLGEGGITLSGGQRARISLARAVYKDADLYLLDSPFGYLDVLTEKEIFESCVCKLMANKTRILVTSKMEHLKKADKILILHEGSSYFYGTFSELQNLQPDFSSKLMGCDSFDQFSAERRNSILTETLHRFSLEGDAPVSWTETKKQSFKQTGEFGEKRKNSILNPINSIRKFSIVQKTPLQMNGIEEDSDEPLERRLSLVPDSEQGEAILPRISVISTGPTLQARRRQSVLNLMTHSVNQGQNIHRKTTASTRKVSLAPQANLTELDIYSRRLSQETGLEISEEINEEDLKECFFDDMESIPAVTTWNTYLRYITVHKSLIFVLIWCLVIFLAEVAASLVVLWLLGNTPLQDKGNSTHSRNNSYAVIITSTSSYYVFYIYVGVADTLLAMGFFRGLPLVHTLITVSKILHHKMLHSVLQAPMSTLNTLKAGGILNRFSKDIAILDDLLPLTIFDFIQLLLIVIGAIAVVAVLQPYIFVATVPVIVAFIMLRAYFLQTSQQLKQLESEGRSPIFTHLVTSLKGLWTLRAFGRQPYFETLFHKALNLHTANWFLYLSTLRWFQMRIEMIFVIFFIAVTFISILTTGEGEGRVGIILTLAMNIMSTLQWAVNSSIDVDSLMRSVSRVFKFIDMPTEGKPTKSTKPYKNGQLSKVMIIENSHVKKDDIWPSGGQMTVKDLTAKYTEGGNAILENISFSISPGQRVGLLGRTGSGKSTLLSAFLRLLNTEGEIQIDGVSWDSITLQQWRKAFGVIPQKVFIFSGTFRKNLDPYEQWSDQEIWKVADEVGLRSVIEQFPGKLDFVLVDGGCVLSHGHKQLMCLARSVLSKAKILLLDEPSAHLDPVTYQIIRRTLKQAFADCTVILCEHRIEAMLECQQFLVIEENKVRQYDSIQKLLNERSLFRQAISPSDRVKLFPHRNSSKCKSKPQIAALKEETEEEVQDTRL

For orientation: EC50 means the concentration giving half of the maximal effect. Consider `Cc1ncccc1CNC(=O)c1ccc2c(c1)CC[C@H]1C[C@](O)(CCC(F)(F)F)CC[C@]21Cc1ccccc1` (racemic) [CP‐628006, rac‐(4bR,7R,8aS)‐4b‐benzyl‐7‐hydroxy‐N‐((2‐methylpyridin‐3‐yl)methyl)‐7‐(3,3,3‐trifluoropropyl)‐4b,5,6,7,8,8a,9,10‐octahydrophenanthrene‐2‐carboxamide], for which the “increase of time to normalised Po of 50% relative to low temperature-rescued” value at F508del‐CFTR [1] (compound 10 μM) is reported as “approximately 67%”. Moreover, the “delay of F508del‐CFTR deactivation (time to reach normalised Po of 50%)” value on F508del‐CFTR [1] (compound 10 μM, ATP 1 mM, PKA 75 nM, versus low temperature-rescued control) is on record as ~ 90 s. For the same molecule, the EC50 at F508del‐CFTR [2] (setting [3]) was found to be 0.5 µM. Further, on F508del‐CFTR [2] (setting [4]), the Po max is on record as 0.62. Besides, the EC50 on F508del‐CFTR [2] (setting [5]) came to 0.4 µM. Also, the “Po max of ATP-dependence in presence of compound” value on F508del‐CFTR [2] (low temperature-rescued F508del‐CFTR, compound 300 nM, ATP 0.1–3 mM) was 0.33. Further, at F508del‐CFTR [2] (setting [6]), the “enhancement of Po” value was determined as 13 ± 5 fold and the “reduction of interburst interval (IBI)” value came to 15 fold. Besides, at F508del‐CFTR [2], the Emax was determined as 144%.
In the case of `CC(C)(C)c1cc(C(C)(C)C)c(NC(=O)c2c[nH]c3ccccc3c2=O)cc1O` [ivacaftor, reference compound], the “acceleration of F508del‐CFTR deactivation (time to reach normalised Po of 50%)” value at F508del‐CFTR [1] (compound 1 μM, ATP 1 mM, PKA 75 nM, versus low temperature-rescued control) was ~ 30 s. In addition, the EC50 on F508del‐CFTR [2] (setting [3]) stood at 0.008 µM. The Po max at F508del‐CFTR [2] (setting [4]) was found to be 0.51. Moreover, at F508del‐CFTR [2] (setting [5]), the EC50 turned out to be 0.01 µM. Moreover, on F508del‐CFTR [2] (setting [7]), the “enhancement of Po” value is 9 ± 5 fold and the “reduction of interburst interval (IBI)” value worked out at 15 fold. Besides, on F508del‐CFTR [2], the Emax turned out to be 103%.
